Results published in patent publication US10792289B2 (Horizon Orphan LLC, priority 2009, dated 2020).
Like-named read-outs stand apart in the source and are kept apart here.

Tested on: P. aeruginosa isolates
Experiment: Phase 2 study: MIC of P. aeruginosa isolates to levofloxacin
Type: cell-based
Conditions: Pseudomonas aeruginosa
Protocol: Efficacy was evaluated by microbiologic assessment of sputum samples, time to need for anti-pseudomonal antimicrobials, the Cystic Fibrosis Questionaire-Revised (CFQ-R), and pulmonary function tests. […] Pair-wise comparisons between all the treatment arms were conducted as secondary analyses.

Compound: C[C@H]1COc2c(N3CCN(C)CC3)c(F)cc3c(=O)c(C(=O)O)cn1c23 [Levofloxacin, levofloxacin]
- MIC50 (168 h, MITT, 240 mg QD, Day 7, read-out: MIC50 (all organisms)): 4 µg/mL
- MIC90 (168 h, MITT, 240 mg QD, Day 7, read-out: MIC90 (all organisms)): 16 µg/mL
- MIC50 (168 h, MITT, combined 240 mg QD and BID, Day 7, read-out: Highest MIC, MIC50): 4 µg/mL
- MIC90 (168 h, MITT, combined 240 mg QD and BID, Day 7, read-out: Highest MIC, MIC90): 16 µg/mL
- MIC50 (168 h, MITT, combined 240 mg QD and BID, Day 7, read-out: MIC50 (all organisms)): 4 µg/mL
- MIC90 (168 h, MITT, combined 240 mg QD and BID, Day 7, read-out: MIC90 (all organisms)): 16 µg/mL
- MIC50 (168 h, Table 14, EE, 120 mg QD, Day 7, read-out: MIC50 (all organisms)): 8 µg/mL
- MIC90 (168 h, Table 14, EE, 120 mg QD, Day 7, read-out: MIC90 (all organisms)): 32 µg/mL
- MIC50 (168 h, Table 14, EE, 240 mg BID, Day 7, read-out: MIC50 (all organisms)): 4 µg/mL
- MIC90 (168 h, Table 14, EE, 240 mg BID, Day 7, read-out: MIC90 (all organisms)): 32 µg/mL
- MIC50 (168 h, Table 14, EE, 240 mg QD, Day 7, read-out: MIC50 (all organisms)): 4 µg/mL
- MIC90 (168 h, Table 14, EE, 240 mg QD, Day 7, read-out: MIC90 (all organisms)): 16 µg/mL
- MIC90 (168 h, Table 14, EE, combined 240 mg QD and BID, Day 7, read-out: MIC90 (all organisms)): 32 µg/mL
- MIC (168 h, read-out: Highest MIC to levofloxacin, mean (SD), MITT, 120 mg QD, Day 7): 15.2 µg/mL
- MIC (168 h, read-out: Highest MIC to levofloxacin, mean (SD), MITT, 240 mg BID, Day 7): 13 µg/mL
- MIC (168 h, read-out: Highest MIC to levofloxacin, mean (SD), MITT, 240 mg QD, Day 7): 10.5 µg/mL
- MIC (168 h, read-out: Highest MIC to levofloxacin, mean (SD), MITT, combined 240 mg QD and BID, Day 7): 11.8 µg/mL
- MIC (168 h, read-out: MIC to levofloxacin (all organisms), mean (SD), EE, 120 mg QD, Day 7): 9.9 µg/mL
- MIC (168 h, read-out: MIC to levofloxacin (all organisms), mean (SD), EE, 240 mg BID, Day 7): 8.8 µg/mL
- MIC (168 h, read-out: MIC to levofloxacin (all organisms), mean (SD), EE, 240 mg QD, Day 7): 6.8 µg/mL
- MIC (168 h, read-out: MIC to levofloxacin (all organisms), mean (SD), EE, combined 240 mg QD and BID, Day 7): 7.8 µg/mL
- MIC (168 h, read-out: MIC to levofloxacin (all organisms), mean (SD), MITT, 120 mg QD, Day 7): 9.6 µg/mL
- MIC (168 h, read-out: MIC to levofloxacin (all organisms), mean (SD), MITT, 240 mg BID, Day 7): 8.6 µg/mL
- MIC (168 h, read-out: MIC to levofloxacin (all organisms), mean (SD), MITT, 240 mg QD, Day 7): 6.7 µg/mL
- MIC (168 h, read-out: MIC to levofloxacin (all organisms), mean (SD), MITT, combined 240 mg QD and BID, Day 7): 7.6 µg/mL
- MIC (168 h, read-out: MIC to levofloxacin (all organisms), mean (SD), Table 14, EE, 120 mg QD, Day 7): 15.7 µg/mL
- MIC (168 h, read-out: MIC to levofloxacin (all organisms), mean (SD), Table 14, EE, 240 mg BID, Day 7): 13.1 µg/mL
- MIC (168 h, read-out: MIC to levofloxacin (all organisms), mean (SD), Table 14, EE, 240 mg QD, Day 7): 10.9 µg/mL
- MIC (168 h, read-out: MIC to levofloxacin (all organisms), mean (SD), Table 14, EE, combined 240 mg QD and BID, Day 7): 11.9 µg/mL
- MIC50 (336 h, EE, 120 mg QD, Day 14, read-out: MIC50 (all organisms)): 4 µg/mL
- MIC90 (336 h, EE, 120 mg QD, Day 14, read-out: MIC90 (all organisms)): 37 µg/mL
- MIC50 (336 h, EE, 240 mg BID, Day 14, read-out: MIC50 (all organisms)): 4 µg/mL
- MIC90 (336 h, EE, 240 mg BID, Day 14, read-out: MIC90 (all organisms)): 16 µg/mL
- MIC50 (336 h, EE, 240 mg QD, Day 14, read-out: MIC50 (all organisms)): 4 µg/mL
- MIC90 (336 h, EE, 240 mg QD, Day 14, read-out: MIC90 (all organisms)): 16 µg/mL
- MIC50 (336 h, EE, combined 240 mg QD and BID, Day 14, read-out: MIC50 (all organisms)): 4 µg/mL
- MIC90 (336 h, EE, combined 240 mg QD and BID, Day 14, read-out: MIC90 (all organisms)): 16 µg/mL
- MIC50 (336 h, MITT, 120 mg QD, Day 14, read-out: Highest MIC, MIC50): 8 µg/mL
- MIC90 (336 h, MITT, 120 mg QD, Day 14, read-out: Highest MIC, MIC90): 32 µg/mL
- MIC50 (336 h, MITT, 120 mg QD, Day 14, read-out: MIC50 (all organisms)): 6 µg/mL
- MIC90 (336 h, MITT, 120 mg QD, Day 14, read-out: MIC90 (all organisms)): 32 µg/mL
- MIC50 (336 h, MITT, 240 mg BID, Day 14, read-out: Highest MIC, MIC50): 6 µg/mL
- MIC90 (336 h, MITT, 240 mg BID, Day 14, read-out: Highest MIC, MIC90): 32 µg/mL
- MIC50 (336 h, MITT, 240 mg BID, Day 14, read-out: MIC50 (all organisms)): 4 µg/mL
- MIC90 (336 h, MITT, 240 mg BID, Day 14, read-out: MIC90 (all organisms)): 16 µg/mL
- MIC50 (336 h, MITT, 240 mg QD, Day 14, read-out: Highest MIC, MIC50): 8 µg/mL
- MIC90 (336 h, MITT, 240 mg QD, Day 14, read-out: Highest MIC, MIC90): 16 µg/mL
- MIC50 (336 h, MITT, 240 mg QD, Day 14, read-out: MIC50 (all organisms)): 4 µg/mL
- MIC90 (336 h, MITT, 240 mg QD, Day 14, read-out: MIC90 (all organisms)): 16 µg/mL
- MIC50 (336 h, MITT, combined 240 mg QD and BID, Day 14, read-out: Highest MIC, MIC50): 8 µg/mL
- MIC90 (336 h, MITT, combined 240 mg QD and BID, Day 14, read-out: Highest MIC, MIC90): 32 µg/mL
